The OPERA property sets (Mansouri et al. 2018)

Settings: not given
In the case of `CCOC(=O)C(=O)CC(C)=O`, the boiling point is reported as 214 °C and the melting point is reported as 18 °C.
With `O=C1c2ccccc2C(=O)c2c1ccc1ccccc21` the melting point was 170 °C and the ready biodegradability was “not readily biodegradable”.
In the case of `O=C(c1cc(O)c(O)c(O)c1)c1ccc(O)c(O)c1O`, the melting point is reported as 270 °C.
In the case of `CCCCCCCCCOCCCCCCCCC`, the log10 vapour pressure (mmHg) is reported as -4.28.
Work on `CCCCCCCCC(=O)OCCCCCCC` yielded a melting point of -15.5 °C.
Work on `CCCCCCOC(=O)c1ccccc1` yielded a boiling point of 272 °C.
With `Clc1ccc(-c2c(Cl)c(Cl)c(Cl)c(Cl)c2Cl)c(Cl)c1Cl` the log10 Henry constant (atm·m³/mol) was -4.96.
Molecule `O=C(O)c1ccc(C(F)(F)F)cc1` has a melting point of 220 °C.
`OCC(F)(F)C(F)(F)C(F)(F)CO` gave a melting point of 79.5 °C.
With `C[Si](C)(Cl)O[Si](C)(C)Cl` the boiling point was 138 °C and the melting point was -37.5 °C.
`CCCCOC(=O)CCC(C)=O` showed a boiling point of 238 °C.
`CCCCCCOC=O` showed a boiling point of 156 °C and a melting point of -62.6 °C.
With `Cc1cc2ccccc2oc1=O` the boiling point was 292 °C and the melting point was 91 °C.
In the case of `Cc1ccc(Cl)c(O)c1`, the boiling point is reported as 213 °C, the melting point is reported as 50.8 °C and the ready biodegradability is reported as “not readily biodegradable”.
With `CCCCCCCCCCCCOC(=O)CCSCCC(=O)OCCCCCCCCCCCC` the melting point was 41 °C and the ready biodegradability was “readily biodegradable”.
For `C1=CC2CCC1C2`, the boiling point was 96 °C, the log10 vapour pressure (mmHg) was 1.59 and the melting point was 45 °C.
`CCC(C)C1(CC)C(=O)NC(=S)NC1=O` (stereo not given) showed a melting point of 169 °C.
For `N#Cc1cc(Cl)ccc1N`, the melting point was 97 °C.
`Nc1ccnc(N)c1` showed a melting point of 107 °C.
`CCN(CC)CC(O)CN` (stereo not given) showed a boiling point of 223 °C.
For `FC(F)(F)C(F)(F)C(F)(F)C(F)(F)C(F)(F)C(F)(F)OC(F)(F)C(F)(F)C(F)(F)C(F)(F)C(F)(F)C(F)(F)F`, the boiling point was 181 °C and the melting point was -90 °C.
`CCn1cc(C(=O)O)c(=O)c2cc(F)c(N3CCNC(C)C3)c(F)c21` (stereo not given) gave a melting point of 240 °C.
In the case of `CN(C)C(=O)Nc1ccc(Cl)c(Cl)c1`, the log10 Koc (L/kg) is reported as 2.4, the log10 vapour pressure (mmHg) is reported as -7.16 and the melting point is reported as 158 °C. The ready biodegradability was “not readily biodegradable”.
For `CC(=O)c1ccc(I)cc1`, the melting point was 86 °C.
For `O=C1C(CCS(=O)c2ccccc2)C(=O)N(c2ccccc2)N1c1ccccc1` (stereo not given), the melting point was 136 °C.
In the case of `c1ccc(-c2noc(-c3ccccc3)n2)cc1`, the boiling point is reported as 290 °C and the melting point is reported as 109 °C.
`Cc1ccc(C(=O)c2ccccc2)c(C)c1` showed a boiling point of 322 °C.
In the case of `Clc1ccc(Cl)c2ncccc12`, the melting point is reported as 97.5 °C.
Molecule `CCCCCCCCCCCCCCCC(=O)OC[C@H](COP(=O)([O-])OCC[N+](C)(C)C)OC(=O)CCCCCCCCCCCCCCC` has a melting point of 234 °C.
In the case of `O=C(O)c1ccc(C(=O)O)nc1`, the melting point is reported as 254 °C and the ready biodegradability is reported as “not readily biodegradable”.
Molecule `CC[C@@H](O)[C@@H]1CCCCN1` has a boiling point of 226 °C and a melting point of 121 °C.
Work on `COc1cc2c(c(O)c1OC)[C@H](C)NCC2` yielded a melting point of 160 °C.
`C=CC1CNC(=S)O1` (stereo not given) gave a melting point of 50 °C.
With `c1ccc2scnc2c1` the boiling point was 231 °C, the melting point was 2 °C and the ready biodegradability was “not readily biodegradable”.
`Cc1ccc(C(=O)N(C)C)cc1` gave a melting point of 41 °C.
With `C#CCCCCC#C` the boiling point was 136 °C.
`Cc1cc(N)n(-c2ccccc2)n1` gave a boiling point of 333 °C and a melting point of 116 °C.
Molecule `OCC1CCCCC1` has a boiling point of 183 °C and a melting point of -43 °C.
In the case of `C=CCOc1nc(OCC=C)nc(OCC=C)n1`, the melting point is reported as 27 °C.
With `CC(C)CCOc1ccc(NC(=S)Nc2ccc(OCCC(C)C)cc2)cc1` the melting point was 146 °C.
`CCCC(=O)C(=O)CCC` gave a boiling point of 168 °C.
`c1ccc2nc3ccccc3cc2c1` gave a boiling point of 346 °C, a log10 Koc (L/kg) of 4.18 and a log10 vapour pressure (mmHg) of -3.87. For the same molecule, the melting point was 108 °C.
Molecule `COc1cc(C(=O)NCCCCCC(=O)O)cc(OC)c1OC` has a melting point of 122 °C.
`CC(=O)c1ccc(O)cc1O` gave a melting point of 146 °C.
In the case of `Clc1ccc(Cc2ccc(Cl)cc2)cc1`, the melting point is reported as 55.5 °C.
`CC(C)(S)[C@@H](N)C(=O)O` gave a melting point of 198 °C.
With `CC(F)=C(Cl)Cl` the boiling point was 78 °C.
In the case of `Cc1n[nH]c(C)c1Cl`, the boiling point is reported as 221 °C and the melting point is reported as 118 °C.
Molecule `Brc1cccc2c1Oc1cccc(Br)c1O2` has a log10 vapour pressure (mmHg) of -5.95 and a melting point of 207 °C.
Work on `Oc1c(F)c(F)cc(F)c1F` yielded a boiling point of 140 °C and a melting point of 38 °C.
`CCOC(=O)C=C1SC(N2CCCCC2)C(=O)N1CC` (stereo not given) gave a melting point of 86.5 °C.
Molecule `CC(=O)C(C)O` (stereo not given) has a boiling point of 143 °C and a melting point of 15 °C.
For `CCCCCCCCC(CCCCCCCC)C(=O)O`, the melting point was 38.5 °C.
With `Cc1ccc(N)cc1F` the melting point was 31 °C.
Molecule `COc1cc(Cc2cnc(N)nc2N)cc(OC)c1OC` has a melting point of 201 °C.
With `CC(C)[C@H](C(=O)OC(C#N)c1cccc(Oc2ccccc2)c1)c1ccc(OC(F)F)cc1` (stereo not given in full) the log10 Koc (L/kg) was 5 and the log10 vapour pressure (mmHg) was -8.06.
Molecule `CC=C(C)CCC` has a log10 vapour pressure (mmHg) of 1.7.
`C1CCC2OC2C1` (stereo not given) gave a boiling point of 132 °C.
`CC(=O)CC(=O)C(F)(F)F` showed a boiling point of 106 °C.
`NS(=O)(=O)c1cc2c(s1)S(=O)(=O)CCC2=O` showed a melting point of 242 °C.
`COc1ccc(N)cc1Cl` gave a log10 Koc (L/kg) of 1.93 and a melting point of 52.5 °C.
`COCCOC` gave a boiling point of 85 °C, a log10 vapour pressure (mmHg) of 1.68 and a melting point of -58 °C.
Molecule `Cc1ccc(Cl)cc1` has a boiling point of 162 °C, a log10 vapour pressure (mmHg) of 0.43 and a melting point of 7.5 °C. For the same molecule, the ready biodegradability was “not readily biodegradable”.
Molecule `O=[N+]([O-])OCC(CO[N+](=O)[O-])O[N+](=O)[O-]` has a boiling point of 250 °C, a log10 vapour pressure (mmHg) of -3.4 and a melting point of 13.5 °C.
Work on `C[Si](Cl)(c1ccccc1)c1ccccc1` yielded a boiling point of 295 °C.
`O=C(Nc1ccc(Cl)cc1C(O)c1ccccc1)c1ccncc1` (stereo not given) gave a melting point of 211 °C.
In the case of `CC(=O)OCCO`, the boiling point is reported as 188 °C.
In the case of `O=C(O)c1ccc(Sc2ccccc2)cc1`, the ready biodegradability is reported as “readily biodegradable”.
Work on `CC(C)(C)C#N` yielded a boiling point of 106 °C, a log10 vapour pressure (mmHg) of 1.54 and a melting point of 15 °C.
Work on `Cc1ccc([N+](=O)[O-])c(F)c1` yielded a melting point of 53.2 °C.
For `CCOC=O`, the boiling point was 54.4 °C, the log10 Henry constant (atm·m³/mol) was -3.41 and the log10 Koa was 2.19. The log10 vapour pressure (mmHg) was 2.39 and the melting point was -79.6 °C.
Work on `Cc1ccc(O)cc1O` yielded a boiling point of 268 °C and a melting point of 106 °C.
`O=C(O)CSCC(=O)O` gave a melting point of 129 °C.
`O=C1c2cccc(O)c2C(=O)c2c(O)cccc21` gave a melting point of 193 °C.
With `CCOC(=O)C(Cl)(Cl)C(C)=O` the boiling point was 206 °C.
For `CCCCCCCCCCCCCCCCCC(=O)OC[C@@H](O)[C@H]1OC[C@H](O)[C@H]1O`, the melting point was 57 °C.
In the case of `O=C(Cl)Cc1ccccc1`, the log10 vapour pressure (mmHg) is reported as -0.702.
`C[C@H]1CCC(=O)N1` gave a boiling point of 248 °C and a melting point of 43 °C.
Work on `COc1ccccc1CC#N` yielded a melting point of 69.8 °C.
For `CC(C)Nc1ccc(Nc2ccccc2)cc1`, the melting point was 74 °C and the ready biodegradability was “not readily biodegradable”.
`C=COC(C)(C)C` gave a boiling point of 75 °C and a melting point of -112 °C.
Molecule `Cc1cnc2ccccc2n1` has a boiling point of 244 °C and a melting point of 180 °C.
In the case of `NCc1ccncc1`, the boiling point is reported as 230 °C and the melting point is reported as -7.6 °C.
In the case of `CCOCOCOCC`, the boiling point is reported as 141 °C.
In the case of `Cc1cnc2c(ccc3c(C)c(C)cnc32)c1C`, the melting point is reported as 278 °C.
Molecule `CCN(CCO)c1ccc(/N=N/c2ccc([N+](=O)[O-])cc2Cl)cc1` has a melting point of 133 °C.
Work on `CCCCNC` yielded a boiling point of 91 °C and a melting point of -75 °C.
With `Clc1ccc2oc3c(Cl)c(Cl)c(Cl)c(Cl)c3c2c1` the log10 vapour pressure (mmHg) was -8.44 and the melting point was 178 °C.
Molecule `COC(=O)NS(=O)(=O)c1ccc(N)cc1` has a log10 Koc (L/kg) of 1.6 and a melting point of 144 °C.
With `CC1Cc2ccccc2N1NC(=O)c1ccc(Cl)c(S(N)(=O)=O)c1` (stereo not given) the melting point was 161 °C.
In the case of `CCCCCCn1c(=O)c2c(ncn2C)n(C)c1=O`, the melting point is reported as 82.5 °C.

Same assay, conditions: fish
For `O=C1c2ccccc2C(=O)c2c1ccc1ccccc21`, the log10 BCF was 1.69 and the log10 biotransformation half-life (days) was -0.84.
In the case of `Clc1ccc(-c2c(Cl)c(Cl)c(Cl)c(Cl)c2Cl)c(Cl)c1Cl`, the log10 biotransformation half-life (days) is reported as 2.54.
With `Cc1ccc(Cl)c(O)c1` the log10 BCF was 0.67.
Molecule `CN(C)C(=O)Nc1ccc(Cl)c(Cl)c1` has a log10 BCF of 1.15 and a log10 biotransformation half-life (days) of -1.45.
`O=C(O)c1ccc(C(=O)O)nc1` gave a log10 BCF of 0.76.
`c1ccc2scnc2c1` showed a log10 BCF of 0.88 and a log10 biotransformation half-life (days) of -0.86.
With `c1ccc2nc3ccccc3cc2c1` the log10 BCF was 2.1.
With `Cc1ccc(Cl)cc1` the log10 BCF was 1.76 and the log10 biotransformation half-life (days) was -0.83.
